# Patent publication EP1430933A2, “Cosmetic and pharmaceutical compositions comprising steroid sulfatase inhibitors and their use for the reduction of hair loss” (Henkel Kommanditgesellschaft auf Aktien, priority 2002, dated 2004)
# Target: T1, Arylsulfatase (EC 3.1.6.1) (Klebsiella aerogenes, UniProt P20713)
# T1 construct: purchased Sigma S-1629
# T1 sequence (P20713 21-464): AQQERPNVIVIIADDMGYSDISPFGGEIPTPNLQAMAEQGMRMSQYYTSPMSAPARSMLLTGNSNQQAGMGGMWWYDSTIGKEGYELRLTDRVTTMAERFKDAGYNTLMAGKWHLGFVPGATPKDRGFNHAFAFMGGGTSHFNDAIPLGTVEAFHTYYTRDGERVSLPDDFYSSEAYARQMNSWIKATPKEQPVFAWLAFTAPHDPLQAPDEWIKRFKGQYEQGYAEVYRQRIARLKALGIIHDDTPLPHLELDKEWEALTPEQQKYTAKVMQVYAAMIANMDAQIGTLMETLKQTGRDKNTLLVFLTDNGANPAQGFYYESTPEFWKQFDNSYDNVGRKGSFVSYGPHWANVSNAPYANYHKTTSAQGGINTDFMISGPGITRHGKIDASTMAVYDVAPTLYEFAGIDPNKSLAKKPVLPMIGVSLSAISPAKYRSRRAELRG
# Experiment: Arylsulfatase enzyme test (Sigma sulfatase enzyme assay S-1629; p-nitrophenol formation from pNPS, 420 nm)
# Format: biochemical
# Conditions: pH 7,1, 37°C, 8 mM pNPS
# Description: Überprüfung der inhibitorischen Wirkung der Steroidsulfatase-Inhibitoren (in vitro)
# Da die Sulfatase des Haarfollikels nicht zur Verfügung stand, diente eine handelsübliche Arylsulfatase (EC 3.1.6.1) aus Aerobacter aerogenes als Modellenzym, um die Hemmwirkung der erfindungsgemäß verwendeten Inhibitoren zu testen. Die Tests wurden mit dem Sulfatase-Enzymassay Product No. S-1629 von Sigma gemäß den Angaben im Sigma Quality Control Test Procedure-Datenblatt durchgeführt. Als Referenz-Inhibitoren dienten Ascorbinsäure und ATP.
# Zur Auswertung wurde die Arylsulfatase-katalysierte Bildung von p-Nitrophenol aus dem Substrat p-Nitrophenylsulfat (pNPS) spektrophotometrisch (λ = 420 nm) verfolgt. Die Reaktionslösungen von 1000 µl, die auf eine Reaktionstemperatur von 37°C temperiert wurden, enthielten 187 mM Tris/HCl (pH 7,1), 8 mM pNPS und eine Startkonzentration von 0,05 U/ml Arylsulfatase. Die Einheit U der Enzymaktivität wurde so definiert, dass 1 U Sulfatase 1,0 µmol pNPS pro Minute bei pH 7,1 und 37°C hydrolysiert. Die Testdurchführung ist auch offenbart bei H.R. Fowler und D. H. Rammler, Biochemistry 3, 230, 1964. Die Reaktion wurde durch Zugabe des Enzyms gestartet und der Anstieg der Absorption bei λ = 420 nm über 5 Minuten verfolgt. Der lineare Anstieg der Absorption (A) pro Zeiteinheit (t) ist hierbei ein Maß für die Aktivität des Enzyms (ΔA/Δt). Die Aktivität des Enzyms in Abwesenheit eines Inhibitors, (ΔA1/Δt1 ), wurde als Referenz gleich 100% gesetzt. Unter analogen Bedingungen wurden die Aktivitäten in Gegenwart eines Inhibitors (ΔA2/Δt2) bestimmt. Die Hemmwirkung des Inhibitors bzw. die Minderung der Enzymaktivität wurde dann berechnet gemäß der Formel 100% - (ΔA2/Δt2 )/( ΔA1/Δt1 )%.
substance,measurement,setting,value
Aluminiumchlorohydrat [Aluminiumchlorohydrat (ACH)],Hemmwirkung,"ACH-Lösung Locron® L 0,01 % (v/v)",Keine Hemmung meßbar
same,Hemmwirkung,"ACH-Lösung Locron® L 0,1 % (v/v)",6%
same,Hemmwirkung,"ACH-Lösung Locron® L 0,5 % (v/v)",27%
same,Hemmwirkung,ACH-Lösung Locron® L 1 % (v/v),52%
